According to BindingDB's records for doi:10.1016/j.bmcl.2007.07.021 (Boehringer Ingelheim Pharmaceuticals, 2007):

Molecular target: T1, Mineralocorticoid receptor (Homo sapiens, UniProt P08235)
T1 sequence (P08235 whole entry): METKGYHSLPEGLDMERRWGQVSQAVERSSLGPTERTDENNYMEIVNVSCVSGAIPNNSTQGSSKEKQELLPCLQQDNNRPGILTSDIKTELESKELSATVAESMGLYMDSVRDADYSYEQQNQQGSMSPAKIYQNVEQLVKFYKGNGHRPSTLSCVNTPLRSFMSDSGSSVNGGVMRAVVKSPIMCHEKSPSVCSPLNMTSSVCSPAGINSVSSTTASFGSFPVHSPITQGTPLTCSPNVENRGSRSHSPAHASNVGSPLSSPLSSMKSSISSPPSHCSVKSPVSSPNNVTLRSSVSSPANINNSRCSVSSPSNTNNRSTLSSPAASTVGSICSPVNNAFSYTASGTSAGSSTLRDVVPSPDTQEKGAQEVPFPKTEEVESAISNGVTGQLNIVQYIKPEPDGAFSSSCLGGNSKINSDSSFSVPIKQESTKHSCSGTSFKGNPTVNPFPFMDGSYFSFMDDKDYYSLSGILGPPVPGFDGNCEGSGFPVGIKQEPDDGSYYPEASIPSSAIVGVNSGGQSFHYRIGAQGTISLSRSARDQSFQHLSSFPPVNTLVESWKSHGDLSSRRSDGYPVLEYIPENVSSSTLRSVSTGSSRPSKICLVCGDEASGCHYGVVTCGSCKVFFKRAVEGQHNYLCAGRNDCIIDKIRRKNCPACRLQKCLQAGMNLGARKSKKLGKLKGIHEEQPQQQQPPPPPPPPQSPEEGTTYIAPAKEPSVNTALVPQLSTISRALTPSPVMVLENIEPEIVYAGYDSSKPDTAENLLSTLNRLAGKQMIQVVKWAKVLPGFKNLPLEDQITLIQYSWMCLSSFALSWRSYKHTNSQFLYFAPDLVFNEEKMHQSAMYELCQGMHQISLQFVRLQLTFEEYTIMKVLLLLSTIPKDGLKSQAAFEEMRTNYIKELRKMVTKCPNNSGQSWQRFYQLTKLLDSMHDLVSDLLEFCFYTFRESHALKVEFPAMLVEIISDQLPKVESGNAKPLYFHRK
Experiment: Fluorescence Polarization Competitive Binding Assay.
Description: IC50 values shown are means of a single experiment done in duplicate 11-point concentration-effect curves.

## C=CCOC(C)C1=CC(C)(C)Nc2ccc(-c3ccccc3OC)cc21 (stereo unspecified) [6-(2-methoxyphenyl)-2,2-dimethyl-4-[1-(prop-2-en-1-yloxy)ethyl]-1,2-dihydroquinoline]
  IC50: 970 nM
